Earlier results, collected in patent US7491730B2, “Compositions useful as inhibitors of GSK-3” (Vertex Pharmaceuticals Incorporated, priority 2002, dated 2009).

Molecular target: gamma secretase
Conditions: vendor value, Calbiochem catalog #565771; read-out: reported IC50

**Q.** Which IC50 does the source give for CC(C)C[C@H](NC(=O)[C@H](Cc1ccccc1)C[C@@H](O)[C@H](Cc1ccccc1)NC(=O)OC(C)(C)C)C(=O)N[C@@H](Cc1ccccc1)C(N)=O [Inhibitor X] here?
**A.** The IC50 was 50 nM.
